Compound: Cn1c(=O)n(-c2ccc(C(C)(C)C#N)cc2)c2c3cc(-c4cnc5ccccc5c4)ccc3ncc21 [Dactolisib] + NC(=O)Nc1cc(-c2cccc(F)c2)sc1C(=O)N[C@H]1CCCNC1 [AZD7762] (partner 0.2 µM)
Assay: relative viability (nuclei count vs DMSO), 5 days (fraction); higher = more cells survive
Details: first compound 0.002 µM
Method in brief: (§1)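 Relative viability equals treated-well nuclei counts divided by vehicle-well nuclei counts. Counts came from 4× images of lung cancer cell lines grown in 1536-well plates for 5 days after pin-tool dosing on the day after seeding. Dosing used one drug alone or a fixed anchor-drug dose plus five library-drug doses (not always all listed) in √10 steps, and values are medians of duplicate plates.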

Cell Line	relative viability
HARA	0.271
HCC-78	0.627
NCI-H322M	0.524
LCLC-97TM1	0.197
A-427	0.749
NCI-H441	1.04
NCI-H1734	0.542
NCI-H460	0.588
NCI-H2347	0.75
NCI-H1395	0.375
201T	0.578
NCI-H1915	0.654
HCC-827	0.226
LXF-289	1.14
NCI-H23	0.241
NCI-H647	0.36
NCI-H1651	0.443
EPLC-272H	0.218
NCI-H1792	0.748
NCI-H1355	0.834
NCI-H3122	0.971
NCI-H1437	1.07
NCI-H1755	0.355
HCC-15	1.18
NCI-H1793	0.44
PC-14	0.348
EKVX	0.693

Same assay, conditions: first compound 0.006325 µM

Cell Line	relative viability
NCI-H2405	0.768
HOP-62	0.403
HCC-44	1.03
LU99A	0.247
BEN	0.645
HARA	0.463
HCC-78	0.712
NCI-H322M	0.547
LCLC-97TM1	0.325
A-427	0.698
NCI-H441	1.28
NCI-H1734	0.428
NCI-H460	0.662
NCI-H2347	0.78
NCI-H1395	0.373
201T	0.64

Cell Line	relative viability
NCI-H1915	0.67
HCC-827	0.279
LXF-289	1.13
NCI-H23	0.232
NCI-H647	0.337
NCI-H1651	0.483
EPLC-272H	0.273
NCI-H1792	0.448
NCI-H1355	0.73
NCI-H3122	0.892
NCI-H1437	1.18
NCI-H1755	0.453
HCC-15	1.02
NCI-H1793	0.361
PC-14	0.368
EKVX	0.73

Same assay, conditions: first compound 0.02 µM

Cell Line	relative viability
NCI-H2405	0.674
HOP-62	0.657
HCC-44	0.951
LU99A	0.263
BEN	0.547
HARA	0.59
HCC-78	0.553
NCI-H322M	0.424
LCLC-97TM1	0.291
A-427	0.688
NCI-H441	1.18
NCI-H1734	0.447
NCI-H460	0.614
NCI-H2347	0.715
NCI-H1395	0.391
201T	0.613

Cell Line	relative viability
NCI-H1915	0.696
HCC-827	0.176
LXF-289	1.19
NCI-H23	0.309
NCI-H647	0.276
NCI-H1651	0.318
EPLC-272H	0.249
NCI-H1792	0.569
NCI-H1355	0.699
NCI-H3122	1
NCI-H1437	1.12
NCI-H1755	0.422
HCC-15	1.26
NCI-H1793	0.38
PC-14	0.333
EKVX	0.659

Same assay, conditions: first compound 0.06325 µM

Cell Line	relative viability
NCI-H2405	0.48
HOP-62	0.261
HCC-44	1.07
LU99A	0.166
BEN	0.588
HARA	0.438
HCC-78	0.484
NCI-H322M	0.425
LCLC-97TM1	0.18
A-427	0.498
NCI-H441	0.764
NCI-H1734	0.146
NCI-H460	0.379
NCI-H2347	0.532
NCI-H1395	0.373
201T	0.464

Cell Line	relative viability
NCI-H1915	0.664
HCC-827	0.184
LXF-289	1.14
NCI-H23	0.19
NCI-H647	0.159
NCI-H1651	0.28
EPLC-272H	0.165
NCI-H1792	0.0821
NCI-H1355	0.419
NCI-H3122	0.953
NCI-H1437	1.05
NCI-H1755	0.411
HCC-15	1.13
NCI-H1793	0.246
PC-14	0.176
EKVX	0.589

Same assay, conditions: first compound 0.2 µM

Cell Line	relative viability
NCI-H2405	0.253
HOP-62	0.198
HCC-44	1.14
LU99A	0.127
BEN	0.41
HARA	0.27
HCC-78	0.242
NCI-H322M	0.408
LCLC-97TM1	0.135
A-427	0.306
NCI-H441	0.449
NCI-H1734	0.131
NCI-H460	0.115
NCI-H2347	0.458
NCI-H1395	0.355
201T	0.402

Cell Line	relative viability
NCI-H1915	0.597
HCC-827	0.231
LXF-289	0.862
NCI-H23	0.101
NCI-H647	0.111
NCI-H1651	0.179
EPLC-272H	0.148
NCI-H1792	0.0508
NCI-H1355	0.308
NCI-H3122	0.488
NCI-H1437	1.1
NCI-H1755	0.325
HCC-15	0.971
NCI-H1793	0.11
PC-14	0.135
EKVX	0.303

Compound: Cn1c(=O)n(-c2ccc(C(C)(C)C#N)cc2)c2c3cc(-c4cnc5ccccc5c4)ccc3ncc21 [Dactolisib] + CS(=O)(=O)N1CCN(Cc2cc3nc(-c4cccc5[nH]ncc45)nc(N4CCOCC4)c3s2)CC1 [Pictilisib] (partner 1 µM)
Assay: as above
Details: first compound 0.002 µM
Method in brief: as §1

Cell Line	relative viability
NCI-H2405	0.343
HOP-62	0.967
HCC-44	0.672
LU99A	0.299
BEN	0.505
HARA	0.469
HCC-78	0.225
NCI-H322M	0.504
LCLC-97TM1	0.252
A-427	0.648
NCI-H441	0.758
NCI-H1734	0.468
NCI-H460	0.423
NCI-H2347	0.49
NCI-H1395	0.64
201T	0.753

Cell Line	relative viability
NCI-H1915	1.01
HCC-827	1.28
LXF-289	0.9
NCI-H23	0.503
NCI-H647	0.448
NCI-H1651	0.654
EPLC-272H	0.316
NCI-H1792	0.323
NCI-H1355	0.505
NCI-H3122	0.59
NCI-H1437	0.452
NCI-H1755	0.47
HCC-15	0.762
NCI-H1793	0.311
PC-14	0.9
EKVX	0.402

Same assay, conditions: first compound 0.006325 µM

Cell Line	relative viability
NCI-H2405	0.475
HOP-62	0.58
HCC-44	0.536
LU99A	0.285
BEN	0.529
HARA	0.34
HCC-78	0.22
NCI-H322M	0.564
LCLC-97TM1	0.151
A-427	0.674
NCI-H441	0.464
NCI-H1734	0.395
NCI-H460	0.355
NCI-H2347	0.599
NCI-H1395	0.611
201T	0.661

Cell Line	relative viability
NCI-H1915	0.952
HCC-827	0.997
LXF-289	0.851
NCI-H23	0.529
NCI-H647	0.407
NCI-H1651	0.514
EPLC-272H	0.239
NCI-H1792	0.246
NCI-H1355	0.401
NCI-H3122	0.608
NCI-H1437	0.421
NCI-H1755	0.471
HCC-15	0.746
NCI-H1793	0.315
PC-14	0.586
EKVX	0.433

Same assay, conditions: first compound 0.02 µM

Cell Line	relative viability
NCI-H2405	0.423
HOP-62	0.604
HCC-44	0.709
LU99A	0.269
BEN	0.463
HARA	0.366
HCC-78	0.195
NCI-H322M	0.34
LCLC-97TM1	0.169
A-427	0.718
NCI-H441	0.412
NCI-H1734	0.39
NCI-H460	0.289
NCI-H2347	0.482
NCI-H1395	0.569
201T	0.661

Cell Line	relative viability
NCI-H1915	0.944
HCC-827	0.932
LXF-289	0.749
NCI-H23	0.37
NCI-H647	0.409
NCI-H1651	0.449
EPLC-272H	0.332
NCI-H1792	0.218
NCI-H1355	0.43
NCI-H3122	0.575
NCI-H1437	0.371
NCI-H1755	0.451
HCC-15	0.707
NCI-H1793	0.175
PC-14	0.412
EKVX	0.37

Same assay, conditions: first compound 0.06325 µM

Cell Line	relative viability
NCI-H2405	0.311
HOP-62	0.236
HCC-44	0.536
LU99A	0.222
BEN	0.4
HARA	0.277
HCC-78	0.206
NCI-H322M	0.448
LCLC-97TM1	0.145
A-427	0.49
NCI-H441	0.285
NCI-H1734	0.26
NCI-H460	0.302
NCI-H2347	0.389
NCI-H1395	0.525
201T	0.538

Cell Line	relative viability
NCI-H1915	0.513
HCC-827	0.654
LXF-289	0.673
NCI-H23	0.252
NCI-H647	0.227
NCI-H1651	0.328
EPLC-272H	0.373
NCI-H1792	0.0901
NCI-H1355	0.32
NCI-H3122	0.442
NCI-H1437	0.268
NCI-H1755	0.368
HCC-15	0.392
NCI-H1793	0.211
PC-14	0.196
EKVX	0.293

Same assay, conditions: first compound 0.2 µM

Cell Line	relative viability
NCI-H2405	0.278
HOP-62	0.254
HCC-44	0.368
LU99A	0.179
BEN	0.282
HARA	0.236
HCC-78	0.193
NCI-H322M	0.461
LCLC-97TM1	0.12
A-427	0.498
NCI-H441	0.233
NCI-H1734	0.216
NCI-H460	0.306
NCI-H2347	0.237
NCI-H1395	0.446
201T	0.539

Cell Line	relative viability
NCI-H1915	0.483
HCC-827	0.63
LXF-289	0.613
NCI-H23	0.23
NCI-H647	0.151
NCI-H1651	0.265
EPLC-272H	0.24
NCI-H1792	0.0962
NCI-H1355	0.241
NCI-H3122	0.336
NCI-H1437	0.165
NCI-H1755	0.274
HCC-15	0.343
NCI-H1793	0.203
PC-14	0.0762
EKVX	0.241

Reference: the supplement of paper PMC10307832
